Reference: US4147787A, “4,5,6,7-Tetrahydro-thieno[2,3-c]-and [3,2-c]-pyridines, and therapeutic compositions containing the same” (Parcor, priority 1977, dated 1979)

How the values were obtained:
[1] = tested on: rat globules (red corpuscles); test: In vitro anti-sludge activity, curative procedure (protamine sulfate); assay type: cell-based; conditions: 25 μg
Experimental: (§1) Said activity was investigated in vitro and in vivo in rats.
(§2) Thrice washed rat globules are diluted to 1/250 in physiological saline. In each of 5 tubes are placed 0.6 ml of this suspension and 0.2 ml physiological saline. To each tube is then added 0-25-50-100 and 200 μg, respectively, of the test derivative contained in 0.2 ml solution. After incubation for one hour at 37° C., 0.2 ml of a solution containing 125 μg/ml protamine sulfate are added, after which the tube is then incubated again for 0.5 hour at 37° C. The globules of each tube are then examined with a Mallases cell, and the percent free globules and the percent aggregates formed by 2, 3, 4, 5 etc.. globules is then recorded.
The experiment was repeated according to a "curvative" procedure; the red corpuscles were first contacted with protamine sulfate and, after incubation for 0.5 hour, 0.2 ml containing 25 μg of test derivative were added thereto, which operation is followed by another incubation for one hour at 37° C. The results obtained are reported in Table III, in which the percent agglomerates as a function of size is indicated.

[2] = tested on: Collagen-induced blood-platelet aggregation; test: Collagen-induced blood-platelet aggregation; assay type: in vivo, Wistar rats; conditions: Rattus norvegicus, po; 100 mg/kg orally, rats, 3 hours after treatment; read-out: Percent inhibition of blood-platelet aggregation, Collagen
Experimental: (§3) A blood sample is taken from the jugular vein of Wistar rats. From this citrated blood and after centifugation, a plasma is reconstituted which contains 600,000 ± 20,000 blood-platelets per ml, which plasma is then used in all aggregation determinations.
(§4) 0.4 ml plasma is placed in a siliconized tube provided with a magnet bar, also siliconized. The tube is introduced into an aggregometer connected to an apparatus which records optical density variations. When light transmission has attained a stable value, 0.5 ml of a solution containing 10 μM A.D.P. (adenosinediphosphate) is added to the tube.
(§5) Blood-platelet aggregation induces an increase of light transmission, followed by a decrease subsequent to the deaggregation phase.
The A.D.P. solution is substituted with a collagen (bovine tendon extract) solution.
(§6) Different groups of 20 rats each are used, each group being orally administered 100 mg/kg of a test derivative.

[3] = tested on: A.D.P. induced blood-platelet aggregation; test: A.D.P. induced blood-platelet aggregation; assay type: in vivo, Wistar rats; conditions: Rattus norvegicus, po; 100 mg/kg orally, rats, 3 hours after treatment, 10 μM A.D.P. solution; read-out: Percent inhibition of blood-platelet aggregation, A.D.P.
Experimental: as §3, §4, §5, §6

[4] = tested on: rat globules (red corpuscles); test: In vitro anti-sludge activity, preventive treatment (protamine sulfate); assay type: cell-based
Experimental: as §1, §2

`O=C(OCc1ccc([N+](=O)[O-])cc1)C1Cc2sccc2CN1Cc1ccc([N+](=O)[O-])cc1` (centres unmarked) [Example 15, 5-p-Nitrobenzyl-6-p-nitrobenzyloxycarbonyl-4,5,6,7-tetrahydro-thieno[3,2-c]pyridine] was tested, and the “percent agglomerates, size 2” value [1] was 11%, the “percent agglomerates, size 3” value [1] was 2% and the “percent agglomerates, size 4” value [1] was 0%. The “percent agglomerates, size 5” value [1] was 0%, the “percent agglomerates, size 6” value [1] was 0% and the “percent agglomerates, size 7” value [1] was 0%. For the same compound, the “percent agglomerates, size 8” value [1] was 0%, the “percent agglomerates, size 9” value [1] was 0% and the “percent agglomerates, size 10” value [1] was 0%. For the same compound, the “percent free red corpuscles (size of agglomerates 1)” value (“percent free red corpuscles” below) [1] was 87%.

In the case of `O=C(OCc1ccccc1)[C@H]1[C@@H](O)c2ccsc2CN1Cc1ccccc1` (relative stereo) [Example 11, 4-Hydroxy-5-benzyloxycarbonyl-6-benzyl-4,5,6,7-tetrahydro-thieno[2,3-c]pyridine], the inhibition at 100 mg/kg [2] is reported as 91.6% and the inhibition at 100 mg/kg [3] is reported as 60.5%.

Compound `O=C(OCc1ccccc1Cl)[C@H]1[C@@H](O)c2sccc2CN1Cc1ccccc1Cl` (relative stereo) [Example 8, 5-o-Chlorobenzyl-6-o-chlorobenzyloxycarbonyl-7-hydroxy-4,5,6,7-tetrahydro-thieno[3,2-c]pyridine] has an inhibition at 100 mg/kg [2] of 90.4% and an inhibition at 100 mg/kg [3] of 61.8%.

`O=C(OCc1ccccc1F)[C@H]1[C@@H](O)c2ccsc2CN1Cc1ccccc1F` (relative stereo) [Example 10, 4-Hydroxy-5-o-fluorobenzyloxycarbonyl-6-o-fluorobenzyl-4,5,6,7-tetrahydro-thieno[2,3-c]pyridine] gave an inhibition at 100 mg/kg [2] of 92.1% and an inhibition at 100 mg/kg [3] of 62.2%.

With `O=C(O)C1Cc2sc(Cl)cc2CN1` (centres unmarked) [Example 4, 6-Carboxy-2-chloro-4,5,6,7-tetrahydro-thieno[3,2-c]pyridine] the inhibition at 100 mg/kg [2] was 91.3% and the inhibition at 100 mg/kg [3] was 63.1%.

`O=C(OCc1ccccc1)C1Cc2ccsc2CN1Cc1ccccc1` (centres unmarked) [Example 20, 5-Benzyloxycarbonyl-6-benzyl-4,5,6,7-tetrahydro-thieno[2,3-c]pyridine] was tested, and the inhibition at 100 mg/kg [2] was 91.5% and the inhibition at 100 mg/kg [3] was 60.4%.

`O=C(O)C1Cc2sc(Cl)cc2CN1Cc1ccccc1` (centres unmarked) [Example 26, 5-Benzyl-6-carboxy-2-chloro-4,5,6,7-tetrahydro-thieno[3,2-c]pyridine] was tested, and the “percent agglomerates, size 2” value [1] was 12%, the “percent agglomerates, size 3” value [1] was 2% and the “percent agglomerates, size 4” value [1] was 0%. For the same compound, the “percent agglomerates, size 5” value [1] was 0%, the “percent agglomerates, size 6” value [1] was 0% and the “percent agglomerates, size 7” value [1] was 0%. The “percent agglomerates, size 8” value [1] was 0%, the “percent agglomerates, size 9” value [1] was 0% and the “percent agglomerates, size 10” value [1] was 0%. The “percent free red corpuscles” value [1] was 86%.

`COC(=O)C1Cc2sc(Cl)cc2CN1Cc1ccccc1Cl` (centres unmarked) [Example 30, 2-Chloro-5-o.chlorobenzyl-6-methoxycarbonyl-4,5,6,7-tetrahydro-thieno[3,2-c]pyridine] showed an inhibition at 100 mg/kg [2] of 93% and an inhibition at 100 mg/kg [3] of 62.4%.

For `O=C(OCc1ccccc1)[C@H]1[C@@H](O)c2sccc2CN1Cc1ccccc1` (relative stereo) [Example 7, 5-Benzyl-6-benzyloxycarbonyl-7-hydroxy-4,5,6,7-tetrahydro-thieno[3,2-c]pyridine], the “percent agglomerates, size 2” value [1] was 12%, the “percent agglomerates, size 3” value [1] was 3% and the “percent agglomerates, size 4” value [1] was 1%. The “percent agglomerates, size 5” value [1] was 0%, the “percent agglomerates, size 6” value [1] was 0% and the “percent agglomerates, size 7” value [1] was 0%. For the same compound, the “percent agglomerates, size 8” value [1] was 0%, the “percent agglomerates, size 9” value [1] was 0% and the “percent agglomerates, size 10” value [1] was 0%. For the same compound, the “percent free red corpuscles” value [1] was 84%.

With `CCOC(=O)C1Cc2sc(Cl)cc2CN1Cc1ccccc1` (centres unmarked) [Example 27, 2-Chloro-5-benzyl-6-ethoxycarbonyl-4,5,6,7-tetrahydro-thieno[3,2-c]pyridine] the “percent agglomerates, size 2” value ([4]; 25 μg) was 16%, the “percent agglomerates, size 3” value ([4]; 25 μg) was 17% and the “percent agglomerates, size 4” value ([4]; 25 μg) was 5%. The “percent agglomerates, size 5” value ([4]; 25 μg) was 0%, the “percent agglomerates, size 6” value ([4]; 25 μg) was 0% and the “percent agglomerates, size 7” value ([4]; 25 μg) was 0%. For the same compound, the “percent agglomerates, size 8” value ([4]; 25 μg) was 0%, the “percent agglomerates, size 9” value ([4]; 25 μg) was 0% and the “percent agglomerates, size 10” value ([4]; 25 μg) was 0%. For the same compound, the “percent agglomerates, size 11” value ([4]; 25 μg) was 0%, the “percent agglomerates, size 12” value ([4]; 25 μg) was 0% and the “percent agglomerates, size 13” value ([4]; 25 μg) was 0%. The “percent free red corpuscles” value ([4]; 25 μg) was 62%, the “percent agglomerates, size 2” value ([4]; 50 μg) was 20% and the “percent agglomerates, size 3” value ([4]; 50 μg) was 10%. The “percent agglomerates, size 4” value ([4]; 50 μg) was 4%, the “percent agglomerates, size 5” value ([4]; 50 μg) was 0% and the “percent agglomerates, size 6” value ([4]; 50 μg) was 0%. The “percent agglomerates, size 7” value ([4]; 50 μg) was 0%, the “percent agglomerates, size 8” value ([4]; 50 μg) was 0% and the “percent agglomerates, size 9” value ([4]; 50 μg) was 0%. The “percent agglomerates, size 10” value ([4]; 50 μg) was 0%, the “percent agglomerates, size 11” value ([4]; 50 μg) was 0% and the “percent agglomerates, size 12” value ([4]; 50 μg) was 0%. For the same compound, the “percent agglomerates, size 13” value ([4]; 50 μg) was 0%, the “percent free red corpuscles” value ([4]; 50 μg) was 66% and the “percent agglomerates, size 2” value ([4]; 100 μg) was 15%. For the same compound, the “percent agglomerates, size 3” value ([4]; 100 μg) was 7%, the “percent agglomerates, size 4” value ([4]; 100 μg) was 3% and the “percent agglomerates, size 5” value ([4]; 100 μg) was 0%. The “percent agglomerates, size 6” value ([4]; 100 μg) was 0%, the “percent agglomerates, size 7” value ([4]; 100 μg) was 0% and the “percent agglomerates, size 8” value ([4]; 100 μg) was 0%. For the same compound, the “percent agglomerates, size 9” value ([4]; 100 μg) was 0%, the “percent agglomerates, size 10” value ([4]; 100 μg) was 0% and the “percent agglomerates, size 11” value ([4]; 100 μg) was 0%. The “percent agglomerates, size 12” value ([4]; 100 μg) was 0%, the “percent agglomerates, size 13” value ([4]; 100 μg) was 0% and the “percent free red corpuscles” value ([4]; 100 μg) was 75%. The “percent agglomerates, size 2” value ([4]; 200 μg) was 9%, the “percent agglomerates, size 3” value ([4]; 200 μg) was 5% and the “percent agglomerates, size 4” value ([4]; 200 μg) was 2%. For the same compound, the “percent agglomerates, size 5” value ([4]; 200 μg) was 0%, the “percent agglomerates, size 6” value ([4]; 200 μg) was 0% and the “percent agglomerates, size 7” value ([4]; 200 μg) was 0%. The “percent agglomerates, size 8” value ([4]; 200 μg) was 0%, the “percent agglomerates, size 9” value ([4]; 200 μg) was 0% and the “percent agglomerates, size 10” value ([4]; 200 μg) was 0%. For the same compound, the “percent agglomerates, size 11” value ([4]; 200 μg) was 0%, the “percent agglomerates, size 12” value ([4]; 200 μg) was 0% and the “percent agglomerates, size 13” value ([4]; 200 μg) was 0%. For the same compound, the “percent free red corpuscles” value ([4]; 200 μg) was 84%, the “percent agglomerates, size 2” value [1] was 10% and the “percent agglomerates, size 3” value [1] was 3%. The “percent agglomerates, size 4” value [1] was 0%, the “percent agglomerates, size 5” value [1] was 0% and the “percent agglomerates, size 6” value [1] was 0%. For the same compound, the “percent agglomerates, size 7” value [1] was 0%, the “percent agglomerates, size 8” value [1] was 0% and the “percent agglomerates, size 9” value [1] was 0%. The “percent agglomerates, size 10” value [1] was 0% and the “percent free red corpuscles” value [1] was 87%.

Work on `COc1cc(COC(=O)C2Cc3sccc3CN2Cc2cc(OC)c(OC)c(OC)c2)cc(OC)c1OC` (centres unmarked) [Example 17, 5-(3,4,5-Trimethoxy-benzyl)-6-(3,4,5-trimethoxy-benzyl-oxycarbonyl)-4,5,6,7-tetrahydro-thieno[3,2-c]pyridine] yielded an inhibition at 100 mg/kg [2] of 92% and an inhibition at 100 mg/kg [3] of 61.2%.

In the case of `COC(=O)C1Cc2sc(Cl)cc2CN1` (centres unmarked) [Example 29], the “percent agglomerates, size 2” value [1] is reported as 9%, the “percent agglomerates, size 3” value [1] is reported as 2% and the “percent agglomerates, size 4” value [1] is reported as 1%. The “percent agglomerates, size 5” value [1] was 0%, the “percent agglomerates, size 6” value [1] was 0% and the “percent agglomerates, size 7” value [1] was 0%. The “percent agglomerates, size 8” value [1] was 0%, the “percent agglomerates, size 9” value [1] was 0% and the “percent agglomerates, size 10” value [1] was 0%. For the same compound, the “percent free red corpuscles” value [1] was 87%, the inhibition at 100 mg/kg [2] was 92.7% and the inhibition at 100 mg/kg [3] was 62.7%.

`CCOC(=O)C1Cc2sccc2CN1C` (centres unmarked) [Example 28, 5-Methyl-6-ethoxycarbonyl-4,5,6,7-tetrahydro-thieno[3,2-c]pyridine] was tested, and the inhibition at 100 mg/kg [2] was 90.2% and the inhibition at 100 mg/kg [3] was 60.8%.

`O=C(OCc1ccccc1)C1Cc2sccc2CN1Cc1ccccc1` (centres unmarked) [Example 12, 5-Benzyl-6-benzyloxycarbonyl-4,5,6,7-tetrahydro-thieno[3,2-c]pyridine] was tested, and the inhibition at 100 mg/kg [2] was 90.8% and the inhibition at 100 mg/kg [3] was 61.6%.

In the case of `O=C(O)[C@@H]1NCc2sccc2[C@@H]1O` (relative stereo) [Example 5, 5-Carboxy-4-hydroxy-4,5,6,7-tetrahydro-thieno[2,3-c]pyridine], the “percent agglomerates, size 2” value [1] is reported as 11%, the “percent agglomerates, size 3” value [1] is reported as 3% and the “percent agglomerates, size 4” value [1] is reported as 0%. For the same compound, the “percent agglomerates, size 5” value [1] was 0%, the “percent agglomerates, size 6” value [1] was 0% and the “percent agglomerates, size 7” value [1] was 0%. For the same compound, the “percent agglomerates, size 8” value [1] was 0%, the “percent agglomerates, size 9” value [1] was 0% and the “percent agglomerates, size 10” value [1] was 0%. The “percent free red corpuscles” value [1] was 86%, the inhibition at 100 mg/kg [2] was 90.5% and the inhibition at 100 mg/kg [3] was 62.3%.
